From patent publication US12590099B2, “Inhibitors of histone deacetylase useful for the treatment or prevention of HIV infection” (Merck Sharp & Dohme LLC, priority 2018, dated 2026)
Read-outs that look alike come from different tables or passages of the source.

What was measured:
HDAC6 = target: T1, HDAC6 (Homo sapiens, UniProt Q9UBN7); assay: Human HDAC enzyme inhibitor Fluor-de-Lys assay, HDAC6; type: biochemical
T1 sequence (Q9UBN7 1-1215): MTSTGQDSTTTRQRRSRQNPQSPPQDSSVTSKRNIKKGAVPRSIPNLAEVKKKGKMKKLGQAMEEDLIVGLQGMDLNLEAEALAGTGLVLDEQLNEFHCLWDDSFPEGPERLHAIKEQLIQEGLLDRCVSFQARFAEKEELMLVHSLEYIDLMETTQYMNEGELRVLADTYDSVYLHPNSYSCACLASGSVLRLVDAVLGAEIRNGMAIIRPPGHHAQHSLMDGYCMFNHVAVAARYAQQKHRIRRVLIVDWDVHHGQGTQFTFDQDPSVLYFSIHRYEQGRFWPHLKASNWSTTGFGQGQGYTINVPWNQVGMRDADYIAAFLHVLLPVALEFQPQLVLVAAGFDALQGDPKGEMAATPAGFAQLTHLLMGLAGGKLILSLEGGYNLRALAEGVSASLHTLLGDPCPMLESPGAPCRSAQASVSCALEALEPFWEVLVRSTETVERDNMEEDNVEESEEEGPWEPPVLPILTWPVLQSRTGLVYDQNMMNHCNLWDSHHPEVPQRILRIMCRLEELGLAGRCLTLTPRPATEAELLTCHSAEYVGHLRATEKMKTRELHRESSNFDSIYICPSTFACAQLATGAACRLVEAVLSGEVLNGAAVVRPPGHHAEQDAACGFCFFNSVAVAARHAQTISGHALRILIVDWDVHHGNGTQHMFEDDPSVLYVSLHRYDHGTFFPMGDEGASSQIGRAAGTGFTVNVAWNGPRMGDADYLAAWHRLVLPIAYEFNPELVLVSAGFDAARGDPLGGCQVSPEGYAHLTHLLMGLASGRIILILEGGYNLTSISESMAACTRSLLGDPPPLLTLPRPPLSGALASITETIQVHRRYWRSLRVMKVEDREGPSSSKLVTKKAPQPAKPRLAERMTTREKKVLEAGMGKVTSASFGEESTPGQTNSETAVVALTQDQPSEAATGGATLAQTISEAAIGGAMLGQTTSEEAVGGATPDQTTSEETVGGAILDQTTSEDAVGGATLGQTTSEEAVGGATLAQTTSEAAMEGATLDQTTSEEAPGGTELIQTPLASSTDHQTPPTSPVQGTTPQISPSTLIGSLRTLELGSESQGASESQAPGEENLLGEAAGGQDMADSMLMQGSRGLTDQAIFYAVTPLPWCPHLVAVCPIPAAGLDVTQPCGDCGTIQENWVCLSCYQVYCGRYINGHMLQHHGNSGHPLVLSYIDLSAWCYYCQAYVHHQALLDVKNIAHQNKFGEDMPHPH

Recombinant human HDAC2 = target: T2, Recombinant human HDAC2 (Homo sapiens, UniProt Q92769); assay: Human HDAC enzyme inhibitor Fluor-de-Lys assay, HDAC2; type: biochemical
T2 construct: Full length human HDAC2-FLAG was expressed in baculovirus infected Sf9 cells; FLAG (C); made in house; host or cells: Sf9 (baculovirus)
T2 sequence (Q92769 whole entry): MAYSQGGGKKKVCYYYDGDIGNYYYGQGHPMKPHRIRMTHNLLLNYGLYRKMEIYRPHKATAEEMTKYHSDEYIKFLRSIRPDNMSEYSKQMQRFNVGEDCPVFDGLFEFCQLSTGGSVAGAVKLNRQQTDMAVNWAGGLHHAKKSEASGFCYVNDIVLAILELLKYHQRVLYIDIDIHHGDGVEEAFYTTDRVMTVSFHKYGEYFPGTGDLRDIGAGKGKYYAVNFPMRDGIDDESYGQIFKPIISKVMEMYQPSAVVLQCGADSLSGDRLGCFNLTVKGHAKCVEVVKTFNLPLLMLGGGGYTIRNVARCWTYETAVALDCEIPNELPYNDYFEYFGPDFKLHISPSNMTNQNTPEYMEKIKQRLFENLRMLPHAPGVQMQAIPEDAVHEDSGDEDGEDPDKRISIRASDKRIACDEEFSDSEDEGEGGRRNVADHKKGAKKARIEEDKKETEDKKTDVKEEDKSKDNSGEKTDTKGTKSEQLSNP
Summary of the method: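 Fluor-de-Lys format at room temperature (23° C.): compounds titrated 10-point, 1:3, preincubated with HDAC before substrate addition. Developer with excess HDAC inhibitor ends the reaction, and trypsin-liberated AMC fluorescence is the read-out.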

[1] = recombinant human HDAC2, Fluor-de-Lys assay

| Structure (SMILES) | IC50 (HDAC6; HDAC6, Fluor-de-Lys assay) | IC50 (Recombinant human HDAC2; [1]) | IC50 (HDAC6) | IC50 (Recombinant human HDAC2) |
| --- | --- | --- | --- | --- |
| CCC(=O)CCCCCC(NC(=O)C1CC12CCN(CC)CC2)c1nc(-c2ccc(F)cc2)[nH]c1-c1ccnn1C (centres unmarked) [Compound 253] | > 45000 nM | 111 nM | – | – |
| CCC(=O)CCCCC[C@H](NC(=O)[C@H]1CC12CCN(C)CC2)c1ncc(-c2cnc(-n3cc(C)cn3)nc2)[nH]1 [Compound 257] | 36600 nM | 185 nM | – | – |
| CCC(=O)CCCCC[C@H](NC(=O)[C@H]1CC12CCN(C)CC2)c1ncc(-c2ccc(-n3nc(C)cc3C)cc2)[nH]1 [Compound 260] | 28400 nM | 52.5 nM | – | – |
| CCC(=O)CCCCC[C@H](NC(=O)[C@H]1CC12CCN(C)CC2)c1ncc(-c2ccc(C(=O)NC3CCOC3)cc2)[nH]1 (some centres unmarked) [Compound 258] | 38700 nM | 23.8 nM | – | – |
| CCC(=O)CCCCC[C@H](NC(=O)[C@H]1CC12CCN(C)CC2)c1[nH]c(-c2ccc(F)cc2)nc1Cl [Compound 91] | – | – | 27500 nM | 14.2 nM |
| CCC(=O)CCCCC[C@H](NC(=O)C1=NOC2(CCN(CC3CC3)CC2)C1)c1ncc(-c2cc3ccc(C)nc3cc2OC)o1 [Compound 225] | 759 nM | 6.2 nM | – | – |
| CCC(=O)CCCCC[C@H](NC(=O)[C@H]1CC12CCN(C)CC2)c1ncc(-c2ccnc(N3CCOCC3)c2F)[nH]1 [Compound 261] | 2470 nM | 102 nM | – | – |
| CCC(=O)CCCCC[C@H](NC(=O)[C@H]1CC12CCN(C(C)C)CC2)c1ncc(-c2ccc3nc(C4CC4)ccc3c2)[nH]1 [Compound 100] | – | – | 11900 nM | < 1.5 nM |
| CCC(=O)CCCCC[C@H](NC(=O)C1CC12CCNCC2)c1nnc(-c2cc3ccccc3nc2OC)o1 (some centres unmarked) [Compound 303] | 982 nM | 40.5 nM | – | – |
| CCC(=O)CCCCC[C@H](NC(=O)C1CCC2(CC1)CN(C(C)C)C2)c1ncc(-c2cc3ccccc3nc2OC)[nH]1 [Compound 272] | 449 nM | 8.2 nM | – | – |
| CCC(=O)CCCCC[C@H](NC(=O)[C@H]1CC12CCN(C)CC2)c1ncc(-c2cn(C)c3ccccc23)[nH]1 [Compound 264] | 1710 nM | 5.9 nM | – | – |
| CCC(=O)CCCCC[C@H](NC(=O)C1CCC2(CC1)CNC2)c1nnc(-c2cc3ccccc3nc2OC)o1 [Compound 299] | 2360 nM | 35.8 nM | – | – |
| CCC(=O)CCCCC[C@H](NC(=O)[C@H]1CC12CCN(C)CC2)c1ncc(-c2coc3ccccc3c2=O)[nH]1 [Compound 86] | – | – | 3330 nM | 64.8 nM |
| CCC(=O)CCCCC[C@H](NC(=O)C1=NOC2(CCN(CC)CC2)C1)c1ncc(-c2cc3ccc(C)nc3cc2F)[nH]1 [Compound 233] | > 900 nM | 25.2 nM | – | – |
| CCC(=O)CCCCC[C@H](NC(=O)C1=NOC2(CCN(C)CC2)C1)c1ncc(-c2ccc(-c3cccnc3)cc2OC)o1 [Compound 222, N-{(1S)-1-[5-(2-methoxy-4-pyridin-3-ylphenyl)-1,3-oxazol-2-yl]-7-oxononyl}-8-methyl-1-oxa-2,8-diazaspiro[4.5]dec-2-ene-3-carboxamide] | > 900 nM | 24.5 nM | – | – |
| CCC(=O)CCCCC[C@H](NC(=O)[C@H]1CC12CCN(C)CC2)c1nnc(-c2cc3ccccc3nc2OC)o1 [Compound 306] | 1170 nM | 58.2 nM | – | – |
| CCC(=O)CCCCC[C@H](NC(=O)[C@H]1CC12CCN(CC)CC2)c1ncc(-c2ccc(-c3ncco3)cc2)o1 [Compound 94] | – | – | 2300 nM | 34 nM |
| CCC(=O)CCCCC[C@H](NC(=O)[C@H]1CC12CCN(C)CC2)c1ncc(-c2ccc3nc(C(F)(F)F)ccc3c2)o1 [Compound 78, (1S)-6-methyl-N-[(1S)-7-oxo-1-{5-[2-(trifluoromethyl)quinolin-6-yl]-1,3-oxazol-2-yl}nonyl]-6-azaspiro[2.5]octane-1-carboxamide] | – | – | 33500 nM | 62.3 nM |
| CCC(=O)CCCCC[C@H](NC(=O)[C@H]1CC12CCN(C(C)C)CC2)c1ncc(-c2cc3ccccc3nc2OC)o1 [Compound 99] | – | – | 110 nM | 17.8 nM |
| CCC(=O)CCCCC[C@H](NC(=O)C1=NOC2(CCN(C)CC2)C1)c1ncc(-c2ccc(-c3cnccn3)cc2OC)o1 [Compound 237, N-{(1S)-1-[5-(2-methoxy-4-pyrazin-2-ylphenyl)-1,3-oxazol-2-yl]-7-oxononyl}-8-methyl-1-oxa-2,8-diazaspiro[4.5]dec-2-ene-3-carboxamide] | > 900 nM | 27.2 nM | – | – |

| Structure (SMILES) | IC50 (HDAC6; HDAC6, Fluor-de-Lys assay) | IC50 (Recombinant human HDAC2; [1]) | IC50 (HDAC6) | IC50 (Recombinant human HDAC2) |
| --- | --- | --- | --- | --- |
| CCC(=O)CCCCC[C@H](NC(=O)CC1CC2(CNC2)C1)c1ncc(-c2ccccc2)[nH]1 [Compound 297] | 8170 nM | 120 nM | – | – |
| CCC(=O)CCCCC[C@H](NC(=O)[C@H]1CC12CCN(C)CC2)c1ncc(-c2ccc(F)cc2)[nH]1 [Compound 280] | 11100 nM | 122 nM | – | – |
| CN1CCC2(CC1)C[C@@H]2C(=O)N[C@@H](CCCCCC(=O)CC1CC1)c1ncc(-c2ccc(F)cc2)[nH]1 [Compound 84] | – | – | 3780 nM | 63.8 nM |
| CCC(=O)CCCCC[C@H](NC(=O)C1=NOC2(CCN(C)CC2)C1)c1ncc(-c2cc3cccnc3cc2OC)o1 [Compound 223] | 237 nM | 9.7 nM | – | – |
| CCC(=O)CCCCC[C@H](NC(=O)CC1CC2(C1)CN(C)C2)c1ncc(-c2ccccc2)[nH]1 [Compound 307] | 12100 nM | 617 nM | – | – |
| CCC(=O)CCCCC[C@H](NC(=O)[C@H]1CC12CCN(CC)CC2)c1ncc(-c2ccc3nn(C4CC4)cc3c2)[nH]1 [Compound 238] | 7780 nM | 1.9 nM | – | – |
| CCC(=O)CCCCC[C@H](NC(=O)[C@H]1CC12CCN(C)CC2)c1ncc(-c2ccc(F)cc2F)[nH]1 [Compound 289] | 10400 nM | 259 nM | – | – |
| CCC(=O)CCCCC[C@H](NC(=O)[C@H]1CC12CN(C)C2)c1ncc(-c2cc3ccc(C)nc3cc2OC)o1 (single isomer, unassigned) [Compound 230] | 396 nM | 2.7 nM | – | – |
| CCC(=O)CCCCC[C@H](NC(=O)[C@@H]1CC12CCN(C)CC2)c1nnc(-c2cc3ccccc3nc2OC)o1 [Compound 305] | 636 nM | 160 nM | – | – |
| CCC(=O)CCCCC[C@H](NC(=O)[C@H]1CC12CCN(C(C)C)CC2)c1ncc(-c2ccc3nc(C)ccc3c2)[nH]1 [Compound 83] | – | – | 2620 nM | < 1.5 nM |
| CCC(=O)CCCCC[C@H](NC(=O)[C@H]1CC12CCN(C)CC2)c1ncc(-c2ccc(C)nc2OC)[nH]1 [Compound 268] | 1780 nM | 17.2 nM | – | – |
| CCC(=O)CCCCC[C@H](NC(=O)[C@H]1CC12CCN(CC)CC2)c1ncc(-c2ccc3c(ccc(=O)n3C)c2)o1 [Compound 97] | – | – | 7090 nM | 23 nM |
| CCC(=O)CCCCC[C@H](NC(=O)CC1CC2(C1)CN(C(C)C)C2)c1ncc(-c2cc3ccccc3nc2OC)[nH]1 [Compound 273] | 400 nM | 3.4 nM | – | – |
| CCC(=O)CCCCC[C@H](NC(=O)[C@H]1CC12CCN(CC1CC1)CC2)c1ncc(-c2cc3ccn(C)c(=O)c3cc2OC)o1 [Compound 229] | 451 nM | 0.7 nM | – | – |
| CCC(=O)CCCCC[C@H](NC(=O)C1CC12CCN(CC)CC2)c1nc(-c2ccc(F)cc2)[nH]c1-c1cn[nH]c1 (some centres unmarked) [Compound 249] | 19300 nM | 88.3 nM | – | – |
| CCC(=O)CCCCC[C@H](NC(=O)C1=NOC2(CCN(C)CC2)C1)c1ncc(-c2cc3ccc(C)nc3cc2F)[nH]1 [Compound 232] | > 900 nM | 21.4 nM | – | – |
| CCC(=O)CCCCC[C@H](NC(=O)[C@H]1CC12CCN(C)CC2)c1ncc(-c2ccc3c(c2)c2ccccc2n3C)[nH]1 [Compound 265] | 630 nM | 12.4 nM | – | – |
| CCC(=O)CCCCC[C@H](NC(=O)C1=NOC2(CCN(CC3CC3)CC2)C1)c1ncc(-c2cc3ccc(C)nc3cc2F)[nH]1 [Compound 234] | > 900 nM | 14.1 nM | – | – |
| CCC(=O)CCCCC[C@H](NC(=O)C1=NOC2(CCN(CC)CC2)C1)c1ncc(-c2cc3ccc(=O)n(C)c3cc2OC)o1 [Compound 235] | > 900 nM | 12.4 nM | – | – |
| CCC(=O)CCCCC[C@H](NC(=O)C1CC12CCN(CC)CC2)c1nc(-c2ccc(F)cc2)[nH]c1-c1cnn(C)c1 (some centres unmarked) [Compound 248] | > 45000 nM | 24.1 nM | – | – |
